# Data as given in US6737383B1, “Herbicidal oxadiazolidines” (priority 1999, dated 2004).
# How the values were obtained:
# purple nutsedge = test: Test B pre/postemergence purple nutsedge; format: in vivo, Cyperus rotundus
# Procedure, shortened: (§1)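 Response is a visual 0-to-10 score relative to untreated plants, where 0 means no effect and 10 means complete control, taken twelve to sixteen days after application. Treatments went onto soil at planting and onto foliage of 1- to 4-leaf plants, using a surfactant-containing non-phytotoxic solvent.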
# soybean = test: Test B pre/postemergence soybean; format: in vivo, Glycine max
# Procedure, shortened: as §1
# velvetleaf = test: Test B pre/postemergence velvetleaf; format: in vivo, Abutilon theophrasti
# Procedure, shortened: as §1
# crabgrass = test: Test B pre/postemergence crabgrass; format: in vivo, Digitaria sanguinalis
# Procedure, shortened: as §1
# wild oat = test: Test B pre/postemergence wild oat; format: in vivo, Avena fatua
# Procedure, shortened: as §1
# smallflower flatsedge = test: Test B flood test smallflower flatsedge; format: in vivo, Cyperus difformis
# Procedure, shortened: (§2)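 Read-out is a visual response score from 0 (no effect) to 10 (complete control), assigned by comparison with untreated controls. Treatment was applied at the 2-leaf stage, and plants stayed in the greenhouse for twelve to sixteen days before scoring.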
# wheat = test: Test B pre/postemergence wheat; format: in vivo, Triticum aestivum
# Procedure, shortened: as §1
# sugar beet = test: Test B pre/postemergence sugar beet; format: in vivo, Beta vulgaris
# Procedure, shortened: as §1
# corn = test: Test B pre/postemergence corn; format: in vivo, Zea mays
# Procedure, shortened: as §1
# duck salad = test: Test B flood test duck salad; format: in vivo, Heteranthera limosa
# Procedure, shortened: as §2
# giant foxtail = test: Test B pre/postemergence giant foxtail; format: in vivo, Setaria faberii
# Procedure, shortened: as §1
# surinam grass = test: Test B pre/postemergence surinam grass; format: in vivo, Brachiaria decumbens
# Procedure, shortened: as §1
# rape = test: Test B pre/postemergence rape; format: in vivo, Brassica napus
# Procedure, shortened: as §1
# blackgrass = test: Test B pre/postemergence blackgrass; format: in vivo, Alopecurus myosuroides
# Procedure, shortened: as §1
# cocklebur = test: Test B pre/postemergence cocklebur; format: in vivo, Xanthium strumarium
# Procedure, shortened: as §1
# morningglory = test: Test B pre/postemergence morningglory; format: in vivo, Ipomoea hederacea
# Procedure, shortened: as §1
# [1] = Postemergence, Rate 125 g/ha, scale of 0 to 10 where 0 is no effect and 10 is complete control
# [2] = Postemergence, Rate 1000 g/ha, scale 0 to 10 (0 no effect, 10 complete control)
# [3] = Preemergence, Rate 62 g/ha, scale of 0 to 10 where 0 is no effect and 10 is complete control
# [4] = Preemergence, Rate 125 g/ha, 0 is no effect, 10 is complete control
# [5] = Preemergence, Rate 250 g/ha, scale 0 to 10, 0 is no effect, 10 is complete control
# [6] = Preemergence, Rate 500 g/ha, scale 0 to 10 (0 no effect, 10 complete control)
# [7] = Rate 62 g/ha, Postemergence, scale of 0 to 10 where 0 is no effect and 10 is complete control
# [8] = Rate 250 g/ha, Postemergence, scale 0 to 10, 0 is no effect, 10 is complete control
# [9] = Rate 500 g/ha, Postemergence, scale 0 to 10
# [10] = Rate 1000 g/ha, Preemergence, scale 0 to 10 (0 no effect, 10 complete control)
# [11] = Rate 2000 g/ha, Postemergence, scale 0 to 10
# [12] = Rate 2000 g/ha, Preemergence, scale 0 to 10
# [13] = Postemergence (flood test species), Rate 125 g/ha, scale of 0 to 10 where 0 is no effect and 10 is complete control
# [14] = Rate 62 g/ha, Postemergence section, flood test species, scale of 0 to 10 where 0 is no effect and 10 is complete control
# [15] = Rate 250 g/ha, Postemergence (flood test), scale 0 to 10, 0 is no effect, 10 is complete control
# [16] = Rate 250 g/ha, Pre-emergence, flood-test species, scale 0 to 10, 0 is no effect, 10 is complete control
# [17] = Rate 500 g/ha, listed under Postemergence (flood test species), scale 0 to 10
# [18] = Rate 2000 g/ha, Pre-emergence (as headed), scale 0 to 10
compound,measurement,setting,value
CC(C)N(C(=O)n1oc(=O)n(N(C)c2ccccc2)c1=O)c1ccc(F)cc1 [Compound 177],Nutsedge plant response rating,purple nutsedge; [1],0
same,Nutsedge plant response rating,purple nutsedge; [2],0
same,Nutsedge plant response rating,purple nutsedge; [3],0
same,Nutsedge plant response rating (0 to 10 scale),purple nutsedge; [4],0
same,Nutsedge plant response rating,purple nutsedge; [5],0
same,Nutsedge plant response rating,purple nutsedge; [6],0
same,Nutsedge plant response rating,purple nutsedge; [7],0
same,"Plant response rating, Nutsedge",purple nutsedge; [8],0
same,Nutsedge plant response rating,purple nutsedge; [9],0
same,"Plant response rating, Nutsedge",purple nutsedge; [10],0
same,Nutsedge plant response rating,purple nutsedge; [11],0
same,Nutsedge plant response rating,purple nutsedge; [12],0
same,Soybean plant response rating,soybean; [1],1
same,Soybean plant response rating,soybean; [2],3
same,Soybean plant response rating,soybean; [3],0
same,Soybean plant response rating (0 to 10 scale),soybean; [4],0
same,Soybean plant response rating,soybean; [5],0
same,Soybean plant response rating,soybean; [6],0
same,Soybean plant response rating,soybean; [7],1
same,"Plant response rating, Soybean",soybean; [8],2
same,Soybean plant response rating,soybean; [9],4
same,"Plant response rating, Soybean",soybean; [10],0
same,Soybean plant response rating,soybean; [11],4
same,Soybean plant response rating,soybean; [12],0
same,Velvetleaf plant response rating,velvetleaf; [2],0
same,Velvetleaf plant response rating,velvetleaf; [3],0
same,Velvetleaf plant response rating (0 to 10 scale),velvetleaf; [4],0
same,Velvetleaf plant response rating,velvetleaf; [5],0
same,Velvetleaf plant response rating,velvetleaf; [6],0
same,"Plant response rating, Velvetleaf",velvetleaf; [8],0
same,Velvetleaf plant response rating,velvetleaf; [9],3
same,"Plant response rating, Velvetleaf",velvetleaf; [10],0
same,Velvetleaf plant response rating,velvetleaf; [11],4
same,Velvetleaf plant response rating,velvetleaf; [12],3
same,Crabgrass plant response rating,crabgrass; [1],0
same,Crabgrass plant response rating,crabgrass; [2],0
same,Crabgrass plant response rating,crabgrass; [3],1
same,Crabgrass plant response rating (0 to 10 scale),crabgrass; [4],6
same,Crabgrass plant response rating,crabgrass; [5],9
same,Crabgrass plant response rating,crabgrass; [6],9
same,Crabgrass plant response rating,crabgrass; [7],0
same,"Plant response rating, Crabgrass",crabgrass; [8],2
same,Crabgrass plant response rating,crabgrass; [9],3
same,"Plant response rating, Crabgrass",crabgrass; [10],8
same,Crabgrass plant response rating,crabgrass; [11],0
same,Crabgrass plant response rating,crabgrass; [12],9
same,Wild oats plant response rating,wild oat; [2],2
same,Wild oats plant response rating,wild oat; [3],0
same,Wild oats plant response rating (0 to 10 scale),wild oat; [4],0
same,Wild oats plant response rating,wild oat; [5],0
same,Wild oats plant response rating,wild oat; [6],2
same,"Plant response rating, Wild oats",wild oat; [8],0
same,Wild oats plant response rating,wild oat; [9],0
same,"Plant response rating, Wild oats",wild oat; [10],10
same,Wild oats plant response rating,wild oat; [11],2
same,Wild oats plant response rating,wild oat; [12],10
same,S. Flatsedge plant response rating,smallflower flatsedge; [13],0
same,S. Flatsedge plant response rating,"smallflower flatsedge; Pre-emergence, Rate 1000 g/ha, scale 0 to 10 (0 no effect, 10 complete control)",0
same,S. Flatsedge plant response rating,smallflower flatsedge; [14],0
same,"Plant response rating, S. Flatsedge",smallflower flatsedge; [15],0
same,S. Flatsedge plant response rating,smallflower flatsedge; [16],0
same,S. Flatsedge plant response rating,smallflower flatsedge; [17],0
same,S. Flatsedge plant response rating,"smallflower flatsedge; Rate 500 g/ha, Pre-emergence, flood test species, scale 0 to 10 (0 no effect, 10 complete control)",0
same,S. Flatsedge plant response rating,smallflower flatsedge; [18],0
same,Wheat plant response rating,wheat; [2],3
same,Wheat plant response rating,wheat; [3],0
same,Wheat plant response rating (0 to 10 scale),wheat; [4],0
same,Wheat plant response rating,wheat; [5],0
same,Wheat plant response rating,wheat; [6],0
same,"Plant response rating, Wheat",wheat; [8],0
same,Wheat plant response rating,wheat; [9],4
same,"Plant response rating, Wheat",wheat; [10],0
same,Wheat plant response rating,wheat; [11],3
same,Wheat plant response rating,wheat; [12],2
same,Sugarbeets plant response rating,sugar beet; [1],0
same,Sugarbeets plant response rating,sugar beet; [2],0
same,Sugarbeets plant response rating,sugar beet; [3],0
same,Sugarbeets plant response rating (0 to 10 scale),sugar beet; [4],0
same,Sugarbeets plant response rating,sugar beet; [5],0
same,Sugarbeets plant response rating,sugar beet; [6],0
same,Sugarbeets plant response rating,sugar beet; [7],0
same,"Plant response rating, Sugarbeets",sugar beet; [8],0
same,Sugarbeets plant response rating,sugar beet; [9],0
same,"Plant response rating, Sugarbeets",sugar beet; [10],0
same,Sugarbeets plant response rating,sugar beet; [11],0
same,Sugarbeets plant response rating,sugar beet; [12],0
same,Corn plant response rating,corn; [1],0
same,Corn plant response rating,corn; [2],0
same,Corn plant response rating,corn; [3],0
same,Corn plant response rating (0 to 10 scale),corn; [4],0
same,Corn plant response rating,corn; [5],0
same,Corn plant response rating,corn; [6],0
same,Corn plant response rating,corn; [7],0
same,"Plant response rating, Corn",corn; [8],0
same,Corn plant response rating,corn; [9],0
same,"Plant response rating, Corn",corn; [10],0
same,Corn plant response rating,corn; [11],0
same,Corn plant response rating,corn; [12],0
same,Ducksalad plant response rating,duck salad; [13],0
same,Ducksalad plant response rating,duck salad; [14],0
same,"Plant response rating, Ducksalad",duck salad; [15],2
same,Ducksalad plant response rating,duck salad; [16],0
same,"Plant response rating, Ducksalad","duck salad; Rate 500 g/ha, headed Pre-emergence (flood test species), scale 0 to 10 (0 no effect, 10 complete control)",0
same,Ducksalad plant response rating,duck salad; [17],2
same,Ducksalad plant response rating,"duck salad; Rate 1000 g/ha, Pre-emergence (as headed), scale 0 to 10",0
same,Ducksalad plant response rating,duck salad; [18],0
same,Giant foxtail plant response rating,giant foxtail; [1],0
same,Giant foxtail plant response rating,giant foxtail; [2],0
same,Giant foxtail plant response rating,giant foxtail; [3],3
same,Giant foxtail plant response rating (0 to 10 scale),giant foxtail; [4],3
same,Giant foxtail plant response rating,giant foxtail; [5],10
same,Giant foxtail plant response rating,giant foxtail; [6],10
same,Giant foxtail plant response rating,giant foxtail; [7],0
same,"Plant response rating, Giant foxtail",giant foxtail; [8],0
same,Giant foxtail plant response rating,giant foxtail; [9],0
same,"Plant response rating, Giant foxtail",giant foxtail; [10],10
same,Giant foxtail plant response rating,giant foxtail; [11],2
same,Giant foxtail plant response rating,giant foxtail; [12],10
same,B. signalgrass plant response rating,surinam grass; [1],0
same,B. signalgrass plant response rating,surinam grass; [2],0
same,B. signalgrass plant response rating,surinam grass; [3],0
same,B. signalgrass plant response rating (0 to 10 scale),surinam grass; [4],0
same,B. signalgrass plant response rating,surinam grass; [5],0
same,B. signalgrass plant response rating,surinam grass; [6],0
same,B. signalgrass plant response rating,surinam grass; [7],0
same,"Plant response rating, B. signalgrass",surinam grass; [8],0
same,B. signalgrass plant response rating,"surinam grass; Rate 500 g/ha, Postemergence, scale 0 to 10, 0 no effect, 10 complete control",0
same,"Plant response rating, B. signalgrass",surinam grass; [10],5
same,B. signalgrass plant response rating,surinam grass; [11],0
same,B. signalgrass plant response rating,surinam grass; [12],9
same,Rape plant response rating,rape; [1],0
same,Rape plant response rating,rape; [2],0
same,Rape plant response rating,rape; [3],0
same,Rape plant response rating (0 to 10 scale),rape; [4],0
same,Rape plant response rating,rape; [5],0
same,Rape plant response rating,rape; [6],0
same,Rape plant response rating,rape; [7],0
same,"Plant response rating, Rape",rape; [8],0
same,Rape plant response rating,rape; [9],0
same,"Plant response rating, Rape",rape; [10],0
same,Rape plant response rating,rape; [11],3
same,Rape plant response rating,rape; [12],0
same,Blackgrass plant response rating,blackgrass; [1],0
same,Blackgrass plant response rating,blackgrass; [2],3
same,Blackgrass plant response rating,blackgrass; [3],0
same,Blackgrass plant response rating (0 to 10 scale),blackgrass; [4],0
same,Blackgrass plant response rating,blackgrass; [5],6
same,Blackgrass plant response rating,blackgrass; [6],6
same,Blackgrass plant response rating,blackgrass; [7],0
same,"Plant response rating, Blackgrass",blackgrass; [8],0
same,Blackgrass plant response rating,blackgrass; [9],2
same,"Plant response rating, Blackgrass",blackgrass; [10],7
same,Blackgrass plant response rating,blackgrass; [11],6
same,Blackgrass plant response rating,blackgrass; [12],9
same,Cocklebur plant response rating,cocklebur; [1],0
same,Cocklebur plant response rating,cocklebur; [2],0
same,Cocklebur plant response rating,cocklebur; [3],0
same,Cocklebur plant response rating (0 to 10 scale),cocklebur; [4],0
same,Cocklebur plant response rating,cocklebur; [5],0
same,Cocklebur plant response rating,cocklebur; [6],0
same,Cocklebur plant response rating,cocklebur; [7],0
same,"Plant response rating, Cocklebur",cocklebur; [8],0
same,Cocklebur plant response rating,cocklebur; [9],3
same,Cocklebur plant response rating,cocklebur; [11],0
same,Cocklebur plant response rating,cocklebur; [12],2
same,Morningglory plant response rating,morningglory; [1],0
same,Morningglory plant response rating,morningglory; [2],1
same,Morningglory plant response rating,morningglory; [3],0
same,Morningglory plant response rating (0 to 10 scale),morningglory; [4],0
same,Morningglory plant response rating,morningglory; [5],0
same,Morningglory plant response rating,morningglory; [6],0
same,Morningglory plant response rating,morningglory; [7],0
same,"Plant response rating, Morningglory",morningglory; [8],2
same,Morningglory plant response rating,morningglory; [9],4
same,"Plant response rating, Morningglory",morningglory; [10],0
same,Morningglory plant response rating,morningglory; [11],1
same,Morningglory plant response rating,morningglory; [12],0
